From patent US20160089352A1, “CELL MEMBRANE TRANSPORT PROMOTER FOR SELECTIVE 5-HT1A SEROTONIN RECEPTORS” (NISHIZAKI BIOINFORMATION RESEARCH INSTITUTE, priority 2013, published 2016)

Key:
[1] = system: 5-HT1A serotonin receptor; assay: Analysis of 5-HT receptor trafficking in rat hippocampus and hypothalamus sections (Western blotting of cellular membrane and cytoplasm fractions); assay type: cell-based; conditions: DCP-LA 100 nM
[2] = system: mouse under a restraint stress; assay: Forced swimming test after restraint stress (depression model); assay type: in vivo; conditions: restraint-stressed mouse, 0.5, 0.75, 1.0, 5.0 mg/kg orally once per day, total 11 days; FIG. 3
Excerpt: At present, in the study of depression using the behavior of an experiment animal, the efficacy of antidepressant and reaction to stress, which are the both sides of depression, are mainly utilized. In a depression model, a method for inducing depression in an animal by imposing a stress such as solitude, electric shock, forced immersion in water, peripheral environment, temperature change and the like is mainly used. In this Experimental Example, a restraint stress animal model was used. A symptom corresponding to depression was induced by loading a stress by enclosing an experiment animal in a narrow space inhibiting movement, and whether an antidepressive effect was observed when a test compound was administered was examined. Male C57BL/6J mouse at 8-week-old was purchased from Japan SLC Inc. (Shizuoka. Japan). The mouse was enclosed in a 11.5 cm plastic cylinder (diameter 2.7 cm) for 3 hr per day, which was performed for 4 consecutive days to impart a stress.
A forced swimming test is a behavioral test used for screening for an antidepressive effect of a compound. Also in this Experimental Example, a forced swimming test was performed according to a previous report after a restraint stress (Porsolt R D. Le Pichon M, Jalfre M. Depression: a new animal model sensitive, to antidepressant treatments. Nature 1977; 266:730-732.). […]

[3] = system: 5-HT1A serotonin receptor; assay: 5-HT1A serotonin receptor on cellular membrane in hippocampus and hypothalamus of restraint-stressed mouse after forced swimming test (Western blotting); assay type: in vivo; conditions: 1 mg/kg orally once per day, total 11 days, hippocampus, hypothalamus, FIG. 4
GSK-3β = assay: Phosphorylation of GSK-3β at Ser9 in hypothalamus of mouse under or not under restraint stress (Western blotting); assay type: in vivo; conditions: total 11 days, FIG. 6

CCCCCC1CC1CC1CC1CCCCCCCC(=O)O (stereo not drawn) [DCP-LA, 8-[2-(2-Pentyl-cyclopropylmethyl)-cyclopropyl]-octanoic acid]
expression of 5-HT1A serotonin receptor on the cellular membrane (ratio of cellular membrane to whole cells) ([1]; 20 min, rat hippocampus and hypothalamus sections, compared with 5-HT2A serotonin receptor, FIG. 1): selectively increased
promoting action on cellular membrane trafficking of 5-HT1A serotonin receptor in the presence of inhibitors ([1]; rat hypothalamus section, GF109203X 100 nM, BoTX-A 0.1 U/ml, KN-93 3 μM, FIG. 2): significantly suppressed by BoTX and KN
immobility time in forced swimming test [2]: immobility time decreasing effect in a dose-dependent manner
stress-induced decrease in 5-HT1A serotonin receptor on the cellular membrane [3]: recovered
phosphorylation of GSK-3β (Ser9) (GSK-3β; irrespective of the presence or absence of a restraint stress, mouse hypothalamus, 1 mg/kg orally): promote phosphorylation
stress-induced suppression of phosphorylation of GSK-3β (Ser9) (GSK-3β; mouse under restraint stress, hypothalamus, 1 mg/kg orally once per day): improves suppression of the phosphorylation
